Measurements published in patent US20060099712A1, “Correlation of anti-cancer activity of dyes with redox potentials” (Eastman Kodak Company, priority 2004, published 2006).
Read-outs that look alike come from different tables or passages of the source. Each block holds one compound with its values, some of them ahead of it.

Experiments:
[1] = Octanol/water partition (log P); assay type: physicochemical; conditions: shaking with water and octanol
Description: Octanol/water partition coefficients (log P) are usually used as a model of drug transport between water and the biophase, as disclosed in A. Leo, C. Hansch, Substituent Constants—for Correlation Analysis in Chemistry. and' Biology, Wiley, New York, 1979 and A. Leo, C. Hansch, D. Elkins, Chem. Rev., 6, 525 (1971), both incorporated herein by reference. Often partition coefficients can be measured simply by shaking the compound with a mixture of water and octanol and determining the concentration of the solute in either solvent. P is equal to the concentration of the solute in octanol divided by its concentration in water. In general, it is possible to measure log P values ranging from −4.0 to 6.0. The situation is also more complicated when the species is charged because of the effects of ion pairing.

[2] = system: CV-1 Normal Monkey Kidney Epithelial; assay: Clonogenic dye screening assay, CV-1 cells (IC50); assay type: cell-based, African green monkey; conditions: Primates
Description: CX-1 is a cancerous human colon adenocarcinoma cell line. CV-1 is a non-cancerous control, which is a kidney epithelial cell line from an African green monkey. IC50 is the dye concentration at which 50% of the cells are killed. Selectivity or kill ratio is defined as the ratio of […] at IC50 for both CX-1 and CV-1. A ratio with a high number indicates a high selectivity.
The dyes were screened in two cell lines. CX-1 is a human colon adenocarcinoma cell line. CV-1 is a kidney epithelial cell line from an African green monkey. CV-1 was used as a reference because no normal human epithelial cell line is available for clonogenic assay.
In the initial screen, dyes were examined at six different concentrations to generate a dose response curve. An IC50 value, the concentration at which 50% of the cells are killed, was then calculated. Initially, a dye concentration of 1.0 μg/mL was the highest examined for the CX-1 cell line and 0.005 μg/mL was the lower limit. The corresponding limits on the CV-1 cell line were […].
The screening procedure used a response curve that was determined from eight dye concentrations. The upper and lower limits of CX-1 were 0.32 and 0.0015 μg/mL, respectively, and the corresponding revised limits on CV-1 were 3.2 and 0.025 μg/mL. The screening results were reported by assigning an IC50 value to each dye for the CV-1 and CX-1 cell lines. These values will be referred to herein simply as CV and CX. The most desirable result would be to have a dye that was highly toxic to carcinoma cells but nontoxic to ‘normal’ cells. One measure of this type of selectivity is the ratio of the IC50's in the normal cell line to that in the carcinoma line, CV/CX.
Compounds are screened via an in vitro assay. CV-1 and CX-1 cells are seeded into separate assay plates. The plates are treated with varying concentrations of test compounds, rinsed, and colonies allowed to grow. IC50's are determined and drugs evaluated based on their selectivity and toxicity. Assay Steps: • I. Seeding Cells • II. Weighing • III. Preparation of Solution • IV. Treatment • V. Rinsing and Feeding • VI. Fixing • VII. IC50 Determination I. Seeding Cells
The cells should be seeded 16-30 hours before treatment. The media for CV-1 cells is DME+5% calf serum +5% Nuserum. The media for CX-1 cells is RPMI/DME (50/50)+5% calf serum +5% Nuserum.
(c) number of cells based on 2000 CX-1 cells/well and 1000 CV-1 cells/well. NOTE: Always make enough cell suspension for 1 extra plate to allow for volume loss during transfers.
• (a) For CV-1: 256 ug/ml-256 ul of 1 mg/ml stock +744 ul DMSO • (b) For CX-1: 25.6 ug/ml-100 ul of 256 ug/ml+900 ul DMSO IV. Treatment • 1. Each plate is treated with 4 test compounds, one positive control and one negative control. • 2. Serial dilutions of the compounds are made in the following way:
2 multi-well pipetters are used. One is set for 10 ul and one for 200 ul. Each is equipped with 6 tips spaced such that they fit into the 6 rows of a plate. 390 ul of media is added to the first column of each plate. 10 ul each of 4 compound solutions, a positive and a negative control are taken up and put into the first column of wells. The 200 ul pipetter is then placed in the same wells, pipetted up and down 3 times and two 200 ul aliquots are moved to the next column of wells. This column is pipetted up and down 3 times and 400 ul moved to column 3, etc. The final 400 ul excess from column 8 is discarded.
• 3. Label the plates along the front, each row −1 compound. • 4. Incubate the plates at 37° C. for 3 hrs. V. Rinsing • 1. Prepare several bottles of CX-1 and CV-1 media. • 2. Check for precipitate in first column of each plate and note. • 3. Starting with the plates treated first, rinse several plates at a time by aspirating the treatments and refilling each well with 0.5-1.0 ml of the rinse media. Aspirate and refill 2 more times for a total of 3 rinses. • 4.

[3] = system: CX-1 Human Colon Carcinoma; assay: Clonogenic dye screening assay, CX-1 cells (IC50); assay type: cell-based; conditions: for IC50: Homo sapiens; for Selectivity: Table 1, cell line not given, values equal CV/CX of Table II; for CV/CX (selectivity, kill ratio): ratio of IC50 in normal CV-1 line to IC50 in carcinoma CX-1 line
How it was run: (§1)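 Cells seeded 16-30 h ahead (2000 CX-1 or 1000 CV-1 per well), exposed to serially diluted dyes for 3 h at 37 °C, rinsed three times, then grown into colonies. Eight-point curves spanned 0.32-0.0015 μg/mL (CX-1) and 3.2-0.025 μg/mL (CV-1). IC50 is the concentration killing 50% of cells.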

[4] = Dye solubility (water, 5% dextrose/water); assay type: physicochemical; conditions: for solubility: among compounds with enhanced activity
Description: Dye solubility is also a factor, since compounds having low water solubility are difficult or impossible to include in in vivo testing.
S13 is one of the simplest cyanine dye structures possible (in this nomenclature the S refers to the sulfur, the 1 indicates one carbon on the nitrogen and 3 indicates a 3 methine chain). […] A synthetic challenge will be to enhance the activity/selectivity of this dye and retain its good water solubility. [drawing 23]

[5] = Table XXII; chain substituent hydrophobicity parameter; cited from earlier work
[6] = Table XXII; chain substituent steric parameter; cited from earlier work
[7] = Table XXII; chain substituent steric parameter; cited from earlier work; remark: listed apart in the source
[8] = Table XXII; chain substituent electronic parameter; cited from earlier work
[9] = Clonogenic dye screening assay, CX-1 cells (IC50); assay type: cell-based, human; conditions: Homo sapiens, CX-1, Table XII column 5; unit from method; read-out: CV (Table XII)
How it was run: as §1

[10] = system: MCF-7 Human Breast Carcinoma; assay: Initial in vitro screening, breast carcinoma cells; assay type: cell-based; conditions: MCF7; cell line 3, MCF-7 human breast carcinoma; unit from method; read-out: IC50 (concentration at which 50% of the cells of the culture are killed)
Description: (§2) Other publications have shown that some cyanine dyes show anti-cancer activity. See I. Minami, Y. Kozai, H. Nomura and T. Tashiro, Chem. Phar. Bull. 30:3106 (1982); W. M. Anderson, D. L. Delinick, L. Benninger, J. M. Wood, S. T. Smiley and L. B. Chen, Biochemical Pharmacology, 45:691 (1993). […] (See L. G. S. Brooker, L. A. Sweet, Science, 105, (1947) and I. Minami, Y. Kozai, H. Nomura, T. Tashiro, Chem. Pharm. Bull., 30,3106 (1982) on chemotherapeutic investigations of cyanine dyes.) Table I lists initial in vitro screening results in various cell lines and a comparison with Adriamycin, which is a widely used chemotherapeutic agent.
(§3) Description of Cell Line • 1. CV-1 Normal Monkey Kidney Epithelial (control) • 2. CX-1 Human Colon Carcinoma • 3. Human Breast Carcinoma • 4. Human Pancreatic Carcinoma • 5. Human Bladder Carcinoma • 6. Human Lung Carcinoma • 7. Human Squamous Cell Carcinoma • 8. Human Adrenal Cortex Carcinoma

[11] = system: CRL 1420 Human Pancreatic Carcinoma; assay: Initial in vitro screening, pancreatic carcinoma cells; assay type: cell-based; conditions: cell line 4, CRL 1420 human pancreatic carcinoma; unit from method; read-out: IC50 (concentration at which 50% of the cells of the culture are killed)
Description: as §2, §3

[12] = system: EJ Human Bladder Carcinoma; assay: Initial in vitro screening, bladder carcinoma cells; assay type: cell-based; conditions: cell line 5, EJ human bladder carcinoma; unit from method; read-out: IC50 (concentration at which 50% of the cells of the culture are killed)
Description: as §2, §3

[13] = system: CCL 185 Human Lung Carcinoma; assay: Initial in vitro screening, lung carcinoma cells; assay type: cell-based; conditions: cell line 6, CCL 185 human lung carcinoma; unit from method; read-out: IC50 (concentration at which 50% of the cells of the culture are killed)
Description: as §2, §3

[14] = system: SCC 68 Human Squamous Cell Carcinoma; assay: Initial in vitro screening, squamous cell carcinoma cells; assay type: cell-based; conditions: cell line 7, SCC 68 human squamous cell carcinoma; unit from method; read-out: IC50 (concentration at which 50% of the cells of the culture are killed)
Description: as §2, §3

[15] = system: CCL 105 Human Adrenal Cortex Carcinoma; assay: Initial in vitro screening, adrenal cortex carcinoma cells; assay type: cell-based; conditions: cell line 8, CCL 105 human adrenal cortex carcinoma; unit from method; read-out: IC50 (concentration at which 50% of the cells of the culture are killed)
Description: as §2, §3

[16] = In vivo tests (toxicity)
Description: Benzothiazole is by far the next best.

[17] = CV-1, 3 hrs treatment, colonies after 7-10 days, unit from method, read-out: CV (IC50 in the CV-1 cell line)
[18] = CX-1, 3 hrs treatment, colonies after 7-10 days, unit from method, read-out: CX (IC50 in the CX-1 cell line)

IC50 [3, 18]: 0.005 µg/mL | IC50 ([3]; CX-1, Table XX, thiacarbocyanine nitrogen substituents, CX-1 cells, read-out: CX): < 0.005 µg/mL | solubility [4]: most desirably soluble
Compound: CN1/C(=C/C=C/c2sc3ccccc3[n+]2C)Sc2ccccc21 [Dye D-100]
IC50 [2, 17]: 0.5 µg/mL | IC50 ([2]; CV-1, Table XX, thiacarbocyanine nitrogen substituents, CV-1 cells, read-out: CV): 0.5 µg/mL | Selectivity [3]: 100 | CV/CX ([3]; Table XX, ratio given a value of 1 where dye inactive): 100.0 | CV/CX (selectivity, kill ratio) [3]: 100 | π [5]: 0.00 | MR [6]: 0.103 | B1 [7]: 1.00 | L [7]: 2.06 | F [8]: 0.00 | R [8]: 0.00 | σm [8]: 0.00 | σp [8]: 0.00

IC50 [9]: 0.005 µg/mL | IC50 [3, 18]: 0.005 µg/mL | IC50 ([3]; CX-1, Table XVI, unsymmetrical dyes, CX-1 cells, read-out: CX): 0.005 µg/mL
Compound: CCN1/C(=C/C=C/c2sc3ccccc3[n+]2CC)Oc2ccccc21 [Dye D-104]
IC50 [2, 17]: 1 µg/mL | IC50 ([2]; CV-1, Table XVI, unsymmetrical dyes, CV-1 cells, read-out: CV): 1 µg/mL | Selectivity [3]: 200 | CV/CX ([3]; Table XVI, selectivity ratio of IC50 values): 200.0 | CV/CX (selectivity, kill ratio) [3]: 200

CX (IC50 in the CX-1 cell line) ([3]; 3 hrs treatment, colonies after 7-10 days, unit from method b117-118): <0.005 µg/mL | solubility [4]: most desirably soluble
Compound: CN1/C(=C/C=C/c2sc3cc4ccccc4cc3[n+]2C)Sc2cc3ccccc3cc21.Cc1ccc(S(=O)(=O)[O-])cc1 [Dye D-140]
CV/CX (selectivity, kill ratio) [3]: 60

solubility in 5% dextrose/water solutions ([4]; 5% dextrose/water): good solubility
Compound: CN1/C(=C/C=C/c2sc3ccccc3[n+]2C)Sc2ccccc21 [Dye S13]

More lines, now with the values behind:

Compound: CCN1C(=CC=Cc2sc3ccccc3[n+]2CC)Sc2ccccc21.[I-] [3,3′-diethylthiacarbocyanine iodide]
octanol/water partition [1]: partition completely into the octanol phase

Compound: CCN1/C(=C/C=C/c2oc3ccc(-c4ccccc4)cc3[n+]2CC)Sc2ccccc21 [Dye D-131]
IC50 [2, 17]: 0.3 µg/mL | IC50 [9]: < 0.005 µg/mL | IC50 [3, 18]: < 0.005 µg/mL

Compound: CCN1/C(=C/C=C/c2sc3cc4c(cc3[n+]2CC)OCO4)Oc2ccccc21 [Dye D-163]
IC50 [2, 17]: 0.3 µg/mL | IC50 [9]: < 0.005 µg/mL | IC50 [3, 18]: 0.3 µg/mL | CV/CX (selectivity, kill ratio) [3]: >60.0

Compound: CCN1/C(=C/N=N/c2sc3ccccc3[n+]2CC)Sc2ccccc21 [Dye O-1, reference compound]
IC50 ([2]; CV-1, cell line 1, CV-1 normal control, unit from method, read-out: IC50 (concentration at which 50% of the cells of the culture are killed)): 7.5 µg/mL | IC50 ([3]; CX-1, cell line 2, CX-1, unit from method, read-out: IC50 (concentration at which 50% of the cells of the culture are killed)): 0.5 µg/mL | IC50 [10]: 0.3 µg/mL | IC50 [11]: 0.75 µg/mL | IC50 [12]: 0.3 µg/mL | IC50 [13]: 0.8 µg/mL | IC50 [14]: 0.3 µg/mL | IC50 [15]: 0.3 µg/mL

Compound: Indole
CV/CX (selectivity, kill ratio) [3]: highest selectivity | toxicity in vivo [16]: high toxicity
